From patent publication US12708620B2, “Prodrugs and medical uses thereof” (priority 2018, dated 2026)
“Also recorded” adds a separate entry of the source.

How the values were obtained:
[1] = test system: MiaPaca-2; assay: in vitro cell culture sensitivity in anoxic conditions; type: cell-based, human
[2] = water solubility for preparing injection dilution
[3] = test system: pH2AX (Histone H2A.X, Phospho S139) in DMS 114 xenograft; assay: DNA damage by pH2AX staining with pimonidazole colocalization; type: in vivo, BALB/c Nude Mice; conditions: 6 hours post single 600 mg/kg
Protocol: To evaluate the impact of Cpd.11 Ms treatment on the induction of DNA damage, histological analysis of pH2AX staining and investigated colocalization of pH2AX and pimonidazole staining was performed in the small cell lung cancer model, DMS 114. DNA damage was assessed at 6 hours post a single administration of Cpd.11 Ms at 600 mg/kg. Pimonidazole Hydrochloride and pH2AX (Histone H2A.X, Phospho S139) antibodies are commercially available (Anti-Pimonidazole Hydrochloride, HP FITC Mab-1, HPI Hypoxyprobe Inc; Anti-Histone H2A.X (Phospho S139) antibody [EP854 (2) Y] ChIP Grade, ab81299, Abcam). From each xenograft sample, 3 non-sequential, 5 μm section levels with 50 μm spacing between each level were obtained. From each level, two or three serial sections were produced and collected on two or three slides depending upon the staining required: i) H&E and Pimonidazole or ii) H&E, Pimonidazole and pH2AX. Sections were then dried overnight at ~37° C. prior to staining. The H&Es were performed on a Leica ST4040 staining platform using harris haematoxylin and 1% eosin. Following antigen retrieval and subsequent protein blocking, the pH2AX antibody was incubated on the study tissue sections at a concentration of 1:48000 for 60 minutes. Following quenching of endogenous Horse Radish Peroxidase (HRP) activity using 3% hydrogen peroxide (aqueous), binding of pH2AX was visualised using a polymer based HRP driven detection system and ImmPACT DAB chromogen giving a brown reaction product at the site of antibody binding. A haematoxylin nuclear counterstain was then applied to the tissue sections. The Pimonidazole (FITC conjugated) antibody was incubated on the study tissue sections at a concentration of 1:5000 for 60 minutes. Following quenching of endogenous Horse Radish Peroxidase (HRP) activity using 3% hydrogen peroxide (aqueous), binding of Pimonidazole was visualised using an HRP conjugated rabbit anti-FITC secondary antibody (HPI Hypoxyprobe Inc, anti-FITC-HRP) and ImmPACT DAB chromogen giving a brown reaction product at the site of antibody binding. […]

[4] = stability to gamma irradiation sterilization; conditions: powder filled vial sterilized under gamma irradiation
[5] = test system: PANC-1 tumor xenograft; assay: pancreatic cancer (PDAC) xenograft model; type: in vivo, BALB/c Nude Mice; conditions: PANC-1 xenograft; for Anti-tumor effect: 600 mg/kg IP, hypoxic status confirmed, methanesulfonate, 600 mg/kg
Protocol: All animal models were established as xenograft model in BALB/c Nude Mice (6-8 weeks old, 17-23 grams, maintained in standard conditions and diet), following approved IACUC (Institutional Animal Care and Use Committees) protocols. Cpd.11 Ms was formulated using 2% dimethyl sulfoxide (DMSO in water for injection, starting from a Cpd.11 Ms main preparation (100-60 mg/ml in 2% DMSO in water for injection).
After tumor cell inoculation, the animals were checked daily for morbidity and mortality. Before commencement of treatment all animals were weighed and the tumor volumes were measured using a caliper. The treatments were started when the mean tumor size reached approx. 250 mm^3. Each treated/control group contained 10 mice that were randomly assigned and injected daily for 5 days. The date of tumor cell inoculation was denoted as day 0 (thus injections were performed at day 1, 2, 3, 4, and 5). At the time of routine monitoring, the animals were checked for any effects of tumor growth and treatments on normal behavior such as mobility, visual estimation of food and water consumption, body weight gain/loss (body weights were measured daily during the 5-day treatment and thrice weekly after treatment), eye/hair matting and any other abnormal effect. Death and observed clinical signs were recorded on the basis of the numbers of animals within each subset. Tumor volumes were measured daily during the 5-day treatment and thrice weekly after treatment in two dimensions using a caliper, and the volume was expressed in mm3 using the formula: V=0.5 a×b2 where a and b are the long and short diameters of the tumor, respectively. The entire procedures of dosing as well as tumor and body weight measurement were conducted in a Laminar Flow Cabinet. Individual mice were euthanized by cervical dislocation when the tumor size reached 1400-1600 mm3. The surrogate endpoint for survival was calculated and indicated as TVx4 (initial tumor volume times 4). Statistical analysis of difference in tumor volume among the groups was conducted at the end of experiment using Independent-Samples T Test. All data were analyzed in SPSS (Statistical Product and Service Solutions) version 18.0 (IBM, Armonk, NY, U.S.). P-values were rounded to three decimal places, with the exception that raw P-values less than 0.001 were stated as P<0.001. All tests were two-sided. P<0.05 was considered to be statistically significant.
For the MDA-MB-436 tumor (ATCC: HTB-130; Passage: P4) cells were maintained in vitro as a monolayer culture in L-15 medium supplemented with 10% heat inactivated fetal bovine serum at 37° C. in an atmosphere of 100% air. […] The cells growing in an exponential growth phase were harvested and counted for tumor inoculation. […]

## CCN1CCN(C(=O)c2cc(N(CCBr)CCOS(C)(=O)=O)c(S(C)(=O)=O)cc2[N+](=O)[O-])CC1.CS(=O)(=O)O [Cpd.11 Ms, 4-(5-((2-bromoethyl) (2-((methylsulfonyl)oxy)ethyl)amino)-4-(methylsulfonyl)-2-nitrobenzoyl)-1-ethylpiperazin-1-ium methanesulfonate]
[1]
  sensitivity in anoxic conditions in vitro: highly Cpd.11 Ms-sensitive
[2]
  solubility: ≥ 100 mg/mL
[3]
  DNA damage (pH2AX) in normoxic areas, treated vs vehicle treated animals: not statistically significantly different
[3]; P=0.023, methanesulfonate, 600 mg/kg
  DNA damage (pH2AX), hypoxic (pimonidazole positive) vs normoxic (pimonidazole negative) areas in treated animals: significantly higher DNA damage; also recorded: mostly detected in the hypoxic areas
[3]; P=0.038
  DNA damage (pH2AX) in hypoxic (pimonidazole positive) areas, treated vs vehicle treated animals: significant increase in DNA damage
[4]
  stability to sterilizing conditions: sufficiently stable
[5]; single treatment cycle, listed as Cpd.11Ms
  Anti-tumor effect: Clear impact,
[5]; single treatment cycle
  Anti-tumor effect: significant tumour growth retardation
[5]; IP
  body weight loss: without major body weight loss
[5]; single treatment cycle, P=0.0018
  increase in median surrogate survival index: approx. 50%
